According to patent US7772192B2, “Compositions and methods for treatment of disease with acetylated disaccharides” (The Regents of the University of California, priority 2003, dated 2010):

Experiments:
[1] = system: LS180 cells; experiment: Metastatic lung tumor formation in SCID mice (LS180); assay type: in vivo
Procedure: Tumor formation. LS180 cells were grown in the presence or absence of 50 μM AcGnG-NM for 6 days, harvested with EDTA, and resuspended in sterile PBS. Approximately 3×10^5 tumor cells in 150 μl PBS were injected into the lateral tail vein of anesthetized 7 week-old immunodeficient mice (Fox Chase SCID; Charles River). The mice were then maintained in microbe-free housing with free access to standard laboratory chow and water, and inspected regularly for any signs of distress. After 4 weeks, mice were euthanized by CO2 asphyxiation under anesthesia, and lungs, livers, brains, kidneys/adrenals, and spleens were fixed in Bouin's solution (Sigma) for 6 hr followed by transfer to 70% ethanol. Lungs for each animal were inspected under a dissecting microscope for the total number of surface tumors. Histologic sections (hematoxylin/eosin) were examined for tumor foci, and representative photomicrographs were taken. The other organs were also reviewed histologically for any tumor foci.
Impairment of metastatic tumor formation. Prior studies have shown that deletion of P-selectin in mice alters the tumorigenicity of hematogenously distributed LS180 cells. Kim et al., Proc. Natl. Acad. Sci. USA, 95: 9325-9330, 1998. […] After 4 weeks, the animals were sacrificed and formation of lung tumor foci was assessed at necropsy by counting nodules on the lung surface and in histologic sections.

[2] = system: LS180 cells adhering to TNF-α activated HMVEC; experiment: Adhesion of tumor cells to activated human endothelial cells; assay type: cell-based; conditions: LS180 cells grown 5 days with disaccharide
Procedure: Adhesion of tumor cells to activated human endothelial cells. HMVEC were added to 96-well plates (1×10^4 cells/well) in EBM-2 media (Clonetics), and allowed to grow to confluence over 2 days. The cells were activated with TNF-α (20 ng/ml; R&D Systems) for 4 hr at 37° C. Calcein labeled tumor cells, harvested after growth for 5 days in various levels of AcGnG-NM, were added to HMVEC at 2.5×10^4 cells/well in 100 μl DMEM and allowed to settle for 20 min. The wells were washed twice with cold PBS, and the extent of binding was determined by fluorimetry. In some experiments anti-E-selectin mAb (2 μg/well) was added prior to addition of tumor cells, cells were treated with sialidase (20 mU/10^6 cells), or TNF-α was omitted.
AcGnG-NM inhibits adhesion to activated endothelia and platelets. In the circulation, tumor cells can encounter E- and P-selectins expressed on endothelial cells, P-selectin on platelets, and L-selectin on leukocytes. Since the presentation of receptors on cells may differ from their arrangement when immobilized on plastic surfaces, LS180 cells were challenged to bind to E-selectin expressed on TNF-α activated human microvascular endothelial cells (HMVEC). […] HMVEC were activated with TNF-α and overlaid with Calcein-loaded LS180 cells. The extent of adhesion was normalized to the value obtained for cells not treated with disaccharide. […]

[3] = system: cell-surface sLe^a of LS180 cells; experiment: Flow cytometry of cell-surface sLe^a (CA19-9); assay type: cell-based, human; conditions: 50 μM
Procedure: Peracetylated forms of GlcNAcβ1,3Galβ-O-naphthalenemethanol (AcGnG-NM) and Galβ1,3Galβ-O-naphthalenemethanol (AcGG-NM) were prepared as described. Sarkar, et al., Carbohydr. Res., 329, 287-300, 2000. The compounds were dissolved in dimethylsulfoxide (DMSO) and added to growth medium to achieve the concentrations indicated in the figures. The supplemented medium was then exchanged for the medium in established cultures of cells in order to avoid lysis caused by adding concentrated DMSO directly to the plates. The final concentration of DMSO was adjusted to ≦0.5% (v/v). After the specified number of days, the cells were harvested with 2 mM EDTA in PBS (20 min) and used for the following experiments.
Cell Sorting. To detect the presence or absence of the relevant carbohydrate determinants, cells were stained with CSLEX-1 (anti-sLe^X, 5 μg/mL, Becton-Dickinson) or CA-19-9 ([…], 14.5 μg/mL, Chemicon) and analyzed by flow cytometry (FACScan Becton-Dickinson, Franklin Lakes, N.J.). […]
Treatment of LS180 cells with AcGnG-NM reduces cell-surface sLe^X, but not sLe^a. […] LS180 cells were grown in the presence of 50 μM AcGnG-NM, harvested with EDTA, stained with monoclonal antibodies (CSLEX-1, anti-sLe^X and CA19-9, anti-sLe^a) as indicated and analyzed by flow cytometry (Materials and Methods). […]

Which results are given for “GlcNAcβ1,3Galβ-O-naphthalenemethanol [AcGnG-NM]”?
lung tumor foci ([1]; cells pretreated with 50 μM for 6 days, 4 weeks, n=8, p<0.0002): less numerous; tumor size ([1]; treated versus untreated cells): approximately the same; adhesion to TNF-α activated HMVEC [2]: inhibited adhesion; cell-surface sLe^a [3]: no effect
